Key:
postmenopausal women = assay: Weaning from hormone therapy with mirtazapine as non-hormonal therapy for vasomotor symptoms; format: in vivo; details: 15 mg by mouth at bedtime for 6 months from the day hormone therapy is discontinued; postmenopausal women 60-65 year old; in comparison to women on hormone therapy
Protocol: Mirtazapine is used as non-hormonal therapy for vasomotor symptoms. Treatment dose is 15 mg. The length of weaning is 6 months. In this example subjects for treatment have the following characteristics: Postmenopausal women of 60-65 year old who have been on hormone therapy for the treatment of vasomotor symptoms associated with menopause for at least 2 years. They have either a need or a desire to discontinue hormone therapy. They are informed of the risks of mirtazapine. They are informed that successful use of mirtazapine for the relief of vasomotor symptoms associated with menopause has been reported in the medical literature. This method should not be used for women who have a condition or take medications that preclude the use of mirtazapine. A person treated according to this example is instructed to take 15 mg mirtazapine by mouth on the day that they are to discontinue hormone therapy. Mirtazapine is prescribed to be taken at bedtime and after all their evening rituals are done so that they can lay down right after taking mirtazapine. They are instructed to continue taking 15 mg of mirtazapine at bedtime for 6 months after which mirtazapine administration is discontinued. […] Method to measure hot flash frequency: by self rating or according to the method described by Freedman et al J. Clin Endocrin & Metabolism, Vol 80, pp 2354-2358.

women with breast cancer = details: results of 15 randomized controlled trials; cited from earlier work

CN1CCN2c3ncccc3Cc3ccccc3C2C1 (racemic) [Mirtazapine]
withdrawal vasomotor symptoms (postmenopausal women): absent or strongly reduced

Clc1cccc(Cl)c1N=C1NCCN1 [clonidine]
measures of hot flashes (women with breast cancer): significantly improved

CC(=O)O[C@]1(C(C)=O)CC[C@H]2[C@@H]3C=C(C)C4=CC(=O)CC[C@]4(C)[C@H]3CC[C@@]21C [megestrol acetate]
measures of hot flashes (women with breast cancer): significantly improved

COc1ccc(C(CN(C)C)C2(O)CCCCC2)cc1 (stereo not shown) [venlafaxine]
measures of hot flashes (women with breast cancer): significantly improved

— US20090306046A1, “METHOD OF TREATMENT OF HORMONE DEPLETION INDUCED VASOMOTOR SYMPTOMS” (N.V. ORGANON, priority 2005, published 2009)
